Assays:
Hepatitis B virus [1] = assay: Inhibition of HBV in Huh7 cells by ELISA; type: functional, organism-based; settings: Huh-7
[2] = Cytotoxicity against human HuH7 cells; type: cell-based, Huh-7
Hepatitis B virus [3] = assay: Inhibition of HBV DNA replication in HepAD38 cells; type: functional, organism-based
[4] = Cytotoxicity against human HepAD38 cells; type: cell-based; settings: read-out: TC50 (the source's name)
Hepatitis B virus [5] = assay: Inhibition of HBV DNA replication in HepG2.2.15 cells; type: functional, organism-based
[6] = Selectivity index, ratio of cytotoxicity against human HepG2.2.15 cells to IC50 for HBV DNA replication in HepG2.2.15 cells; type: toxicity, cell-based; settings: read-out: Selectivity Index
Hepatitis B virus [7] = assay: Inhibition of HBV DNA replication in AML-12 cells after 48 hrs by dot blot analysis; type: functional, organism-based; settings: AML12, 48 h
[8] = Cytotoxicity against mouse AML-12 cells after 48 hrs by MTT assay; type: cell-based
Hepatitis B virus [9] = assay: Inhibition of HBV DNA replication in HepDES19 cells after 48 hrs by dot blot analysis; type: functional, organism-based; settings: HepDES19, 48 h
[10] = Cytotoxicity against human HepDES19 cells after 48 hrs by MTT assay; type: cell-based
Hepatitis B virus [11] = assay: Inhibition of HBV DNA replication; type: functional, organism-based
Hepatitis B virus [12] = assay: Inhibition of HBV virions secretion; type: functional, organism-based
Hepatitis B virus [13] = assay: Inhibition of HBV antigen secretion; type: functional, organism-based
[14] = Cytotoxicity against human HepG2.2.15 cells assessed as cell viability; type: cell-based, HepG2 2.2.15; settings: read-out: TC50 (the source's name)
Hepatitis B virus [15] = assay: Inhibition of HBV antigen secretion in HepDE19 cell after 7 days by ELISA; type: functional, organism-based; settings: HepDE19, 168 h
[16] = Cytotoxicity against human HepDE19 cells after 7 days by MTT assay; type: cell-based
[17] = Ratio of CC50 for human HepG2.2.15 cells to IC50 for HBV DNA replication in HepG2.2.15 cells; design: species or system HepG2 2.2.15
Hepatitis B virus [18] = assay: Inhibition of HBV antigen secretion in HepG2.2.15 cells; type: functional, organism-based
[19] = Selectivity index, ratio of cytotoxicity against human HepG2.2.15 cells to IC50 for HBV antigen secretion in HepG2.2.15 cells; type: toxicity, cell-based; settings: read-out: Selectivity Index
Hepatitis B virus [20] = assay: Inhibition of HBV DNA replication in HepG2 cells by southern blot analysis; type: functional, organism-based

O=C1OC(OCc2ccccc2)=N/C1=C\c1ccccc1
EC50 (Hepatitis B virus [1]): 5400 nM
CC50 [2]: > 50 µM

COc1ccccc1/C(Br)=C(\NC(=O)c1ccc([N+](=O)[O-])cc1)C(=O)N1CCCCC1
EC50 (Hepatitis B virus [3]): 130 nM
EC90 (Hepatitis B virus [3]): 0.92 µM
CC50 [4]: > 61 µM

Cc1cc(C)n2[nH]c(=S)nc2n1
EC50 (Hepatitis B virus [1]): 120 nM
CC50 [2]: > 50 µM

CCOC(=O)c1cc2cc(OC)c(O)c(CN3CCCC3)c2nc1CSc1ccccc1
IC50 (Hepatitis B virus [5]): 36800 nM
selectivity ratio [6]: 2.8

CCC(C)NS(=O)(=O)c1ccc(F)c(C(=O)NCc2ccc(F)c(F)c2)c1 (stereo unspecified)
EC50 (Hepatitis B virus [7]): 300 nM
CC50 at 48 h [8]: > 50 µM
EC50 (Hepatitis B virus [9]): 100 nM
CC50 at 48 h [10]: > 50 µM

CC(C)Cc1sc(-c2nccs2)nc1C(=O)NCc1ccc(F)cc1
IC50 (Hepatitis B virus [11]): 0.14 µM

Clc1cc2nc(N3CCN(c4ccccn4)CC3)[nH]c2cc1Cl
EC50 (Hepatitis B virus [12]): 600 nM
EC50 (Hepatitis B virus [13]): 1500 nM

CCOC(=O)C1=C(C)NC(c2ncccc2F)=NC1c1ccc(F)cc1Cl (stereo unspecified)
IC50 (Hepatitis B virus [5]): 150 nM
CC50 [14]: 50 µM

O=C(NCc1ccccc1)c1ccc(Cl)c(S(=O)(=O)N2CCCCCC2)c1
EC50 (Hepatitis B virus [7]): 1700 nM
CC50 at 48 h [8]: > 50 µM
EC50 (Hepatitis B virus [9]): 1600 nM
CC50 at 48 h [10]: > 50 µM

Cc1nc2cc(NC(=O)c3ccc(S(=O)(=O)N(C)Cc4ccccc4)cc3)ccc2s1
EC50 (Hepatitis B virus [15]): 350 nM
CC50 at 168 h [16]: > 2.57 µM

O=C(CN(c1cc(C(F)(F)F)ccc1Cl)S(=O)(=O)c1ccccc1)NCc1ccncc1
EC50 (Hepatitis B virus [15]): 4550 nM
CC50 at 168 h [16]: > 50 µM

O=C(NCc1ccc(F)c(F)c1)c1cc(S(=O)(=O)NC2CCCC2)ccc1F
EC50 (Hepatitis B virus [7]): 390 nM
CC50 at 48 h [8]: > 50 µM
EC50 (Hepatitis B virus [9]): 140 nM
CC50 at 48 h [10]: > 50 µM

CN(C)C(=O)c1ccc2c(c1)nc(-c1nccs1)n2C
IC50 (Hepatitis B virus [5]): 1100 nM
Ratio CC50/IC50 [17]: >90

CCOC(=O)C1=C(C)NC(c2nccs2)=N[C@H]1c1ccc(F)cc1Cl
IC50 (Hepatitis B virus [5]): 30 nM
CC50 [14]: 25 µM

COc1cc2nc3c(cc2c(Cn2ccnc2C)c1O)CSc1cc(F)ccc1-3
IC50 (Hepatitis B virus [5]): 1700 nM
selectivity ratio [6]: 60.3

CCOC(=O)c1cc2cc(OC)c(O)c(CN3C=NCC3)c2nc1C[S+]([O-])c1ccc(F)c(F)c1 (stereo unspecified)
IC50 (Hepatitis B virus [5]): 2600 nM
IC50 (Hepatitis B virus [18]): 14.2 µM
selectivity ratio [6]: 61.6
selectivity ratio [19]: 11.3

CCOC(=O)C1=C(CN2CCOCC2)NC(c2nccs2)=NC1c1ccc(F)cc1Br (stereo unspecified)
IC50 (Hepatitis B virus [20]): 12 nM

CCCCC/N=C(\c1ccc(=O)n(CCCCC)c1)c1ccc(OC)cc1O
IC50 (Hepatitis B virus [13]): 5 µM
IC50 (Hepatitis B virus [11]): 30 µM

O=C(N/C(C(=O)N1CCCCC1)=C(/Cl)c1ccccc1)c1ccccc1
EC50 (Hepatitis B virus [3]): 1200 nM
EC90 (Hepatitis B virus [3]): 13 µM
CC50 [4]: > 81 µM

Source: ChEMBL document CHEMBL3739304, “Non-nucleoside anti-HBV agents: advances in structural optimization and mechanism of action investigations” (Medchemcomm, 2015)
